Assay results from ChEMBL document CHEMBL3621077, “Synthesis of hybrid anticancer agents based on kinase and histone deacetylase inhibitors” (Medchemcomm, 2014).
pIC50: −log10 of the molar value. Calls of active or inactive are those of the source. No cut-off for these calls is given here.

How the values were obtained:
RPMI-8226 = experiment: Cytotoxicity against human RPMI8226 cells; type: functional
Xenopus laevis [1] = organism: Xenopus laevis; settings: at 10 to 100 µM
Xenopus laevis [2] = organism: Xenopus laevis; experiment: Inhibition of angiogenesis in Xenopus laevis embryo heart assessed as reduction in tube formation at 100 uM at stage 9 incubated for 72 hrs until stage 38 measured by WISH method; type: functional, organism-based
OVCAR-4 = experiment: Cytotoxicity against human OVCAR4 cells; type: functional
IGROV-1 = experiment: Cytotoxicity against human IGROV1 cells; type: functional
CAKI-1 = experiment: Cytotoxicity against human Caki1 cells; type: functional
Histone deacetylase 8 = biological target: T1, Histone deacetylase 8 (Homo sapiens, UniProt Q9BY41); experiment: Inhibition of HDAC8 (unknown origin); settings: read-out: IC50
T1 sequence (Q9BY41 whole entry): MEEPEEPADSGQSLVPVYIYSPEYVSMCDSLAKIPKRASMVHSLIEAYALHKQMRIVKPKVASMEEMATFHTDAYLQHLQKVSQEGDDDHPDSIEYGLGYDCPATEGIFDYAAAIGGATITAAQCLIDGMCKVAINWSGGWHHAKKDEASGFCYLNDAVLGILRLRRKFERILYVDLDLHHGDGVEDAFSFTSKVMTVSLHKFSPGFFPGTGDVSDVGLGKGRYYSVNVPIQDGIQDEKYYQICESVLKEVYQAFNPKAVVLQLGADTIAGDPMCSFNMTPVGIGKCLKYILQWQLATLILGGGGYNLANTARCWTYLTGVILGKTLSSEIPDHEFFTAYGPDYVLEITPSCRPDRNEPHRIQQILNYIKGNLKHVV

HCC 2998 = experiment: Cytotoxicity against human HCC2998 cells; type: functional
UACC-257 = experiment: Cytotoxicity against human UACC257 cells; type: functional
SR = experiment: Cytotoxicity against human SR cells; type: functional
NCI-H226 = experiment: Cytotoxicity against human NCI-H226 cells; type: functional
HOP-62 = experiment: Cytotoxicity against human HOP62 cells; type: functional
COLO 205 = experiment: Cytotoxicity against human COLO205 cells; type: functional
DU-145 = experiment: Cytotoxicity against human DU145 cells; type: functional
PC-3 = experiment: Cytotoxicity against human PC3 cells; type: functional
Histone deacetylase 1 = Histone deacetylase 1 (Homo sapiens, UniProt Q13547); experiment: Inhibition of HDAC1 (unknown origin)
Sequence of Histone deacetylase 1 (Q13547 whole entry): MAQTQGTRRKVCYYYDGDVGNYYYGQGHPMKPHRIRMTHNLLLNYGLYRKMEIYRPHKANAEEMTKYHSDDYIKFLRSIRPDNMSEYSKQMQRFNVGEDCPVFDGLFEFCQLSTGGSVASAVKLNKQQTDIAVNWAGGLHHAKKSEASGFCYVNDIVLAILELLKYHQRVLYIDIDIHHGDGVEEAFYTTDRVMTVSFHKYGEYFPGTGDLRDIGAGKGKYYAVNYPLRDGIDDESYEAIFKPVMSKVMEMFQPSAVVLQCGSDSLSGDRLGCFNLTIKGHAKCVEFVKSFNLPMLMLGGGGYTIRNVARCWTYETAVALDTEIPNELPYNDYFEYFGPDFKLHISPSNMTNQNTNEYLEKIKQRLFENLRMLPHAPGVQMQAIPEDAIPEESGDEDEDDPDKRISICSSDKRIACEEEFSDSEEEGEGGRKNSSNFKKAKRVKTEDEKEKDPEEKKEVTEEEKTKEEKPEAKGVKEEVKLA

SF-295 = experiment: Cytotoxicity against human SF295 cells; type: functional
ACHN = experiment: Cytotoxicity against human ACHN cells; type: functional
A498 = experiment: Cytotoxicity against human A498 cells; type: functional
M14 = experiment: Cytotoxicity against human M14 cells; type: functional
Histone deacetylase 7 = biological target: T2, Histone deacetylase 7 (Homo sapiens, UniProt Q8WUI4); experiment: Inhibition of HDAC7 (unknown origin)
T2 sequence (Q8WUI4 whole entry): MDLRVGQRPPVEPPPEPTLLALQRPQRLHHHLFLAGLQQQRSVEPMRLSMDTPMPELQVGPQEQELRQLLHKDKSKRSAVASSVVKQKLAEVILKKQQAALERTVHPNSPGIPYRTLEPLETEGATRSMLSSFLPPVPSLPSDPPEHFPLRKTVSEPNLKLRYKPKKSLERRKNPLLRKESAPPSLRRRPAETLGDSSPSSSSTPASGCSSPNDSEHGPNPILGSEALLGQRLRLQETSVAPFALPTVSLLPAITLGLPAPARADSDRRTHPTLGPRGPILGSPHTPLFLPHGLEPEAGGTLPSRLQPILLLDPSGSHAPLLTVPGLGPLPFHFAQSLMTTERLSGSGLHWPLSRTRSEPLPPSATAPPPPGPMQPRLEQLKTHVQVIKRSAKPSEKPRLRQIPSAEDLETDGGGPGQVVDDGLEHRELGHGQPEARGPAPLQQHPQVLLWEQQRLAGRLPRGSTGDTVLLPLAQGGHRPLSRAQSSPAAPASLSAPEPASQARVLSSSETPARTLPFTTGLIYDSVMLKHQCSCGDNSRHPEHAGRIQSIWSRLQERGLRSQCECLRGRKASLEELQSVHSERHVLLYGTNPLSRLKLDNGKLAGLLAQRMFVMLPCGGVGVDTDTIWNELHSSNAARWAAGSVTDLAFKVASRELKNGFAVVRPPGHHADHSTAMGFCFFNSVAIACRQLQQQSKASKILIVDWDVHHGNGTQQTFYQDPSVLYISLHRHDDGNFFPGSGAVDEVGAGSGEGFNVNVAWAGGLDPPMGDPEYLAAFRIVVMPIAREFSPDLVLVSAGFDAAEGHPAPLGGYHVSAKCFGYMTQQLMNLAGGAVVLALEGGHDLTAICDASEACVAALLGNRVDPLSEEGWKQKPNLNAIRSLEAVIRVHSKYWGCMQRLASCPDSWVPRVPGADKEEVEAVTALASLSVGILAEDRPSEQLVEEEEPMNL

Histone deacetylase 3 = Histone deacetylase 3 (Homo sapiens, UniProt O15379); experiment: Inhibition of HDAC3 (unknown origin)
Sequence of Histone deacetylase 3 (O15379 whole entry): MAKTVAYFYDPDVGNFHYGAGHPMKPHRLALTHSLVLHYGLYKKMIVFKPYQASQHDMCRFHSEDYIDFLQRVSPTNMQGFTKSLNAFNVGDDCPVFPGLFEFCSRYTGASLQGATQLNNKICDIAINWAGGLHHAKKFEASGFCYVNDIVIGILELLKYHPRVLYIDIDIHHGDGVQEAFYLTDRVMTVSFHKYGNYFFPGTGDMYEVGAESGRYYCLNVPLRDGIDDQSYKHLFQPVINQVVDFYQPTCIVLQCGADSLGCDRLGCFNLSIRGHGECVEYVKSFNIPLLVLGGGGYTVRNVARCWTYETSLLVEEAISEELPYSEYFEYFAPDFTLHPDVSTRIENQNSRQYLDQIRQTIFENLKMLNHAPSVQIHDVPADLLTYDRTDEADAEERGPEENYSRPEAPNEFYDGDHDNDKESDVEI

UACC-62 = experiment: Cytotoxicity against human UACC62 cells; type: functional
HCT-116 = experiment: Cytotoxicity against human HCT116 cells; type: functional
MCF7 = experiment: Cytotoxicity against human MCF7 cells; type: functional
SF-539 = experiment: Cytotoxicity against human SF539 cells; type: functional
NCI-H460 = experiment: Cytotoxicity against human NCI-H460 cells; type: functional
SF-268 = experiment: Cytotoxicity against human SF268 cells; type: functional
OVCAR-3 = experiment: Cytotoxicity against human OVCAR3 cells; type: functional
MDA-MB-468 = experiment: Cytotoxicity against human MDA-MB-468 cells; type: functional
HT-29 = experiment: Cytotoxicity against human HT-29 cells; type: functional
HOP-92 = experiment: Cytotoxicity against human HOP92 cells; type: functional
SK-MEL-5 = experiment: Cytotoxicity against human SK-MEL-5 cells; type: functional
SK-MEL-2 = experiment: Cytotoxicity against human SK-MEL-2 cells; type: functional
OVCAR-8 = experiment: Cytotoxicity against human OVCAR8 cells; type: functional
MDA-MB-435 = experiment: Cytotoxicity against human MDA-MB-435 cells; type: functional
Xenopus laevis [3] = organism: Xenopus laevis; experiment: Inhibition of angiogenesis in Xenopus laevis embryo heart assessed as effect on Egfl7 expression in intersomitic vessels at 100 uM at stage 9 incubated for 72 hrs until stage 38 measured by WISH method; type: functional, organism-based; settings: Intersomitic vessel
Malme-3M = experiment: Cytotoxicity against human MALME-3M cells; type: functional
[4] = biological target: Platelet-derived growth factor receptor beta (Homo sapiens, UniProt P09619); experiment: Inhibition of PDGFRb (unknown origin); settings: read-out: IC50
Sequence of Platelet-derived growth factor receptor beta (P09619 whole entry): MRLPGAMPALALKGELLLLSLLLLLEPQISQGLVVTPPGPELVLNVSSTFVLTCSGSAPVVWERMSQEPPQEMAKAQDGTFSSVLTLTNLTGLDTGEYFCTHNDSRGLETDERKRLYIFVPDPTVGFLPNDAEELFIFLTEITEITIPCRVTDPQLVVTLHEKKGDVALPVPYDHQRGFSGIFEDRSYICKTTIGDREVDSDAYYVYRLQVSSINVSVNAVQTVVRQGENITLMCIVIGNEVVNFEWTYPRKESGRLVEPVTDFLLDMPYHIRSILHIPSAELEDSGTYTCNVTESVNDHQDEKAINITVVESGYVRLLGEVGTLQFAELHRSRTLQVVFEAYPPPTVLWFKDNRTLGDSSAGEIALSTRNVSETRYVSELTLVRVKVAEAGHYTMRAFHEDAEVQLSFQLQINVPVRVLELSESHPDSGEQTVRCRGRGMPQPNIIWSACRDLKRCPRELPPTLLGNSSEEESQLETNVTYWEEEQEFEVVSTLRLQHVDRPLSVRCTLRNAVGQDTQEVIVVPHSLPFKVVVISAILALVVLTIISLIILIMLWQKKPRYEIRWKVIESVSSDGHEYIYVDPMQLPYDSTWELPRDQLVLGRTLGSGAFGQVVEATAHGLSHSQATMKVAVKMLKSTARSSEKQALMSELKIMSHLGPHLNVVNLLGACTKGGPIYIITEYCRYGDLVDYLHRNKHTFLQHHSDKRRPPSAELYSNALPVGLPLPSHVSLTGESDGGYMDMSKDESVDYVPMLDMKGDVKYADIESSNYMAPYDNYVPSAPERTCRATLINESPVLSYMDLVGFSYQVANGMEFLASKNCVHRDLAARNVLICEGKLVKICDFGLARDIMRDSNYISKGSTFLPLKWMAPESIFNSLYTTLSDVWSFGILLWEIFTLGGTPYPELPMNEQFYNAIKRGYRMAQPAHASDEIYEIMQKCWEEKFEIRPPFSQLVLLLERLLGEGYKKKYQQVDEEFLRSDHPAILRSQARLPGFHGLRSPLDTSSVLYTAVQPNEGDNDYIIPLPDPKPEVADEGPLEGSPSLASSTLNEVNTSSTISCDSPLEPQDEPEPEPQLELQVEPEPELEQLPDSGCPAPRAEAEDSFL

NCI-H23 = experiment: Cytotoxicity against human NCI-H23 cells; type: functional
UO-31 = experiment: Cytotoxicity against human UO31 cells; type: functional
U-251 = experiment: Cytotoxicity against human U251 cells; type: functional
[5] = Cytotoxicity against human NCI-ADR-RES cells; type: functional
OVCAR-5 = experiment: Cytotoxicity against human OVCAR5 cells; type: functional
Histone deacetylase 4 = Histone deacetylase 4 (Homo sapiens, UniProt P56524); experiment: Inhibition of HDAC4 (unknown origin)
Sequence of Histone deacetylase 4 (P56524 whole entry): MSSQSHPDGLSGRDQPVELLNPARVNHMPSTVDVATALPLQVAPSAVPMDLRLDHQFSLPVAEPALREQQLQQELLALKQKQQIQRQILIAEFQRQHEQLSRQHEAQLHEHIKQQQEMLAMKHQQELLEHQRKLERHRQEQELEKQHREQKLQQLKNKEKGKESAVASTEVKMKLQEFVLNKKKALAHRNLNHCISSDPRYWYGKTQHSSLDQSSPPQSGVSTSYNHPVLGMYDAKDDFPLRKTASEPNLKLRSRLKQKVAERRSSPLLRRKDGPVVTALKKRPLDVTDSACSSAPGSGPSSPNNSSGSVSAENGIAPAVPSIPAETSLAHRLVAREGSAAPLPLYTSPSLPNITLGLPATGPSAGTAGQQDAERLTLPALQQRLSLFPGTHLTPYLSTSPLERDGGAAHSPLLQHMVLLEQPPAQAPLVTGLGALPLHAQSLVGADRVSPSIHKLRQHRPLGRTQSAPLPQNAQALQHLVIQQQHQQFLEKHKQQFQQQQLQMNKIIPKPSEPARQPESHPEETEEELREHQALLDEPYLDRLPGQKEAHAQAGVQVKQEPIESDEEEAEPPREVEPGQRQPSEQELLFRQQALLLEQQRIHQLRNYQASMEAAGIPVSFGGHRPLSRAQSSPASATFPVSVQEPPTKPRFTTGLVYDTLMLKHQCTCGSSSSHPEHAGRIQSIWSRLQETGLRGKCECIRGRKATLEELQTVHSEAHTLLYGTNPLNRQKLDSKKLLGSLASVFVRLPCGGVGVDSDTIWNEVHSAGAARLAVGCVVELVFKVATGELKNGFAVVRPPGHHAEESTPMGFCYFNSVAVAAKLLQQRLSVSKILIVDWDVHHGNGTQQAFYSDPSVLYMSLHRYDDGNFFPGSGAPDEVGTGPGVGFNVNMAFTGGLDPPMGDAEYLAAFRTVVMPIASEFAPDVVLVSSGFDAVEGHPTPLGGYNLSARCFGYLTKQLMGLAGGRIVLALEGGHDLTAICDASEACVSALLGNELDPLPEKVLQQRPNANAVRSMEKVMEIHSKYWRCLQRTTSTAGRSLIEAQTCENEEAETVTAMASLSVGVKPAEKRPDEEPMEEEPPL

O=C(CCCCCCC(=O)Nc1ccc2c(c1)/C(=C/c1ccc[nH]1)C(=O)N2)NO
GI50 (RPMI-8226): 2920 nM
inhibition (Xenopus laevis [1]): Active
Activity (Xenopus laevis [2]): inactive
GI50 (OVCAR-4): 1270 nM
GI50 (IGROV-1): 167 nM
GI50 (CAKI-1): 2330 nM
pIC50 (Histone deacetylase 8): 7.22
GI50 (HCC 2998): 1640 nM
GI50 (UACC-257): 370 nM
GI50 (SR): 296 nM
GI50 (NCI-H226): 2320 nM
GI50 (HOP-62): 381 nM
GI50 (COLO 205): 248 nM
GI50 (DU-145): 1020 nM
GI50 (PC-3): 917 nM
pIC50 (Histone deacetylase 1): 11.16
GI50 (SF-295): 1310 nM
GI50 (ACHN): 1150 nM
GI50 (A498): 365 nM
GI50 (M14): 489 nM
IC50 (Histone deacetylase 7): Not Active
pIC50 (Histone deacetylase 3): 9.17
GI50 (UACC-62): 301 nM
GI50 (HCT-116): 238 nM
GI50 (MCF7): 440 nM
GI50 (SF-539): 605 nM
GI50 (NCI-H460): 2740 nM
GI50 (SF-268): 1190 nM
GI50 (OVCAR-3): 3600 nM
GI50 (MDA-MB-468): 194 nM
GI50 (HT-29): 612 nM
GI50 (HOP-92): 412 nM
GI50 (SK-MEL-5): 243 nM
GI50 (SK-MEL-2): 989 nM
GI50 (OVCAR-8): 499 nM
GI50 (MDA-MB-435): 341 nM
inhibition (Xenopus laevis [3]): inactive
GI50 (Malme-3M): 86 nM
pIC50 [4]: 6.73
GI50 (NCI-H23): 1320 nM
GI50 (UO-31): 775 nM
GI50 (U-251): 420 nM
GI50 [5]: 4000 nM
GI50 (OVCAR-5): 1120 nM
IC50 (Histone deacetylase 4): Not Active
